Assay [1] deals with T1, protein-protein interaction between hSOS1 and hKRASG12C (Homo sapiens, UniProt Q07889).
T1 construct: GST-hSOS1, 564-1049aa expressed and purified in-house
T1 sequence (Q07889 564-1049): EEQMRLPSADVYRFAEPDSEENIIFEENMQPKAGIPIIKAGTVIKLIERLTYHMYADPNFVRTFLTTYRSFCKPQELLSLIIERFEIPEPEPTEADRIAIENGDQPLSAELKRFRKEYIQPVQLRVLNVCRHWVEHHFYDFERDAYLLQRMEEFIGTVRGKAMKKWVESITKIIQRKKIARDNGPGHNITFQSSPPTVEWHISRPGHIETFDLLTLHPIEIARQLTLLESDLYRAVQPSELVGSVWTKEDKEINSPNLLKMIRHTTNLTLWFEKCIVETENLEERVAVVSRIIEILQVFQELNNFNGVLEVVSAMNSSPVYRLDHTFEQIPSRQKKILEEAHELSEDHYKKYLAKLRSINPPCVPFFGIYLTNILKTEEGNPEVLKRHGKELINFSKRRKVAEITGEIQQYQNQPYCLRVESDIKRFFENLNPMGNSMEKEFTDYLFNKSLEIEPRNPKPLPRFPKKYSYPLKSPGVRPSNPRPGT
Briefly: KRAS-SOS1 interaction assay (HTRF). The assay is classed as binding. The following applies: GST-hSOS1 564-1049aa, HIS-hKRASG12C, read-out: KRAS-SOS1 Interaction inhibition IC50. In short, it runs like this:
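GST-hSOS1 (564-1049aa) at 10-50 nM working solution pre-incubated with compounds 10 min at 20° C in HEPES pH 7.4 buffer with EDTA, DTT, BSA and Igepal. HIS-hKRASG12C (100-300 nM working solution) added for 30-60 min, then anti-GST-d2/anti-HIS-Tb detection; percent inhibition from the 665/620 nm ratio.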
(TR-FRET usually uses a lanthanide donor and a delayed reading to cut background.)

In assay [2] the test system is pERK after EGF stimulation in DLD1 cells. The assay can be described thus: ERK phosphorylation assay (alphascreen pERK). The format is cell-based. The following applies: Homo sapiens, DLD-1, 2 h compound, 200 ng/ml hEGF for 5 minutes, read-out: ERK phosphorylation inhibition IC50. In short, it runs like this: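 DLD1 cells pretreated with test compounds for 2 h, then stimulated with 200 ng/ml hEGF for 5 min. Lysates assayed by AlphaScreen SureFire for ERK1/2 p-T202/Y204, read after 2 h at 25–28 °C. % inhibition relative to the stimulated-minus-unstimulated vehicle window.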

Assay [3] deals with T2, nucleotide exchange on hKRASG12C mediated by hSOS1 (Homo sapiens, UniProt Q07889).
T2 construct: HIS-hSOS1, 564-1049aa mediated GTP loading onto GST-hKRASG12C; His (N); made in house
T2 sequence (Q07889 564-1049): T1 sequence (Q07889 564-1049)
The assay can be described thus: Guanine nucleotide exchange assay (GNEA, HTRF). The assay is classed as biochemical. The following applies: HIS-hSOS1 564-1049aa mediated GTP loading onto GST-hKRASG12C 1-169aa, read-out: Guanine nucleotide exchange inhibition IC50. In short, it runs like this: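 Compounds were pre-incubated 10 min at 20 °C with HIS-hSOS1 (564-1049aa) and EDA-GTP-DY-647P1 (working solution 10-50 nM and 200 nM) in pH 7.4 HEPES with NaCl, MgCl2, DTT, BSA and Igepal. GST-hKRASG12C (1-169aa, 25-125 nM working solution) plus anti-GST-Tb was added for 30-60 min at 20 °C. Percent inhibition came from the HTRF 665/620 nm ratio.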

SMILES strings stand for the structures.

As for `CCN1C(=O)COc2cc3nc(C)nc(N[C@H](C)c4cccc(C(F)(F)CO)c4F)c3cc21` [Compound 13, (R)-4-((1-(3-(1,1-difluoro-2-hydroxyethyl)-2-fluorophenyl)ethyl)amino)-6-ethyl-2-methyl-6H-[1,4]oxazino[3,2-g]quinazolin-7(8H)-one], the IC50 (usually the concentration that gives 50% inhibition) was in the range of 0.001 to 0.01 µM in assay [1], 0.001 to 0.2 µM in assay [2] and 0.001 to 0.03 µM in assay [3].

`Cc1nc(N[C@H](C)c2cccc(C(F)(F)CO)c2F)c2cc3c(cc2n1)OC(C)(C)C(=O)N3C` [Compound 18, (R)-4-((1-(3-(1,1-difluoro-2-hydroxyethyl)-2-fluorophenyl)ethyl)amino)-2,6,8,8-tetramethyl-6H-[1,4]oxazino[3,2-g]quinazolin-7(8H)-one]: the figures for the IC50 in assay [1], in assay [2] and in assay [3] were 0.001 to 0.01 µM, 0.001 to 0.2 µM and 0.001 to 0.03 µM, respectively.

In the case of `Cc1nc(N[C@H](C)c2cccc(C(F)(F)CO)c2F)c2cc3c(cc2n1)OC1(CC1)C(=O)N3C` [Compound 25, (R)-4′-((1-(3-(1,1-difluoro-2-hydroxyethyl)-2-fluorophenyl)ethyl)amino)-2′,6′-dimethylspiro[cyclopropane-1,8′-[1,4]oxazino[3,2-g]quinazolin]-7′(6′H)-one], the values for the IC50 in assay [1], in assay [2] and in assay [3] were 0.001 to 0.01 µM, 0.001 to 0.2 µM and 0.001 to 0.03 µM, respectively.

With `Cc1nc(N[C@H](C)c2cccc(C(F)(F)C(C)(C)O)c2F)c2cc3c(cc2n1)N(C)C(C)(C)C(=O)N3C` [Compound 28, (R)-4-((1-(3-(1,1-difluoro-2-hydroxy-2-methylpropyl)-2-fluorophenyl)ethyl)amino)-2,6,8,8,9-pentamethyl-8,9-dihydropyrazino[2,3-g]quinazolin-7(6H)-one], the IC50 in assay [1] was 0.001 to 0.01 µM; in assay [2], 0.001 to 0.2 µM; in assay [3] it was 0.001 to 0.03 µM.

As for `Cc1nc(N[C@H](C)c2cccc(C(F)(F)C(C)(C)O)c2F)c2cc3c(cc2n1)c(=O)n(C)c(=O)n3C` [Compound 29, (R)-9-((1-(3-(1,1-difluoro-2-hydroxy-2-methylpropyl)-2-fluorophenyl)ethyl)amino)-1,3,7-trimethylpyrimido[4,5-g]quinazoline-2,4(1H,3H)-dione], the IC50 in assay [1] is 0.001 to 0.01 µM; in assay [2], 0.001 to 0.2 µM; in assay [3], 0.001 to 0.03 µM.

Turning to `Cc1nc(N[C@H](C)c2cccc(C(F)(F)C(C)(C)O)c2F)c2cc3c(cc2n1)OC(C)(C)CN3C` [Compound 34, (R)-1,1-Difluoro-1-(2-fluoro-3-(1-((2,6,8,8-tetramethyl-7,8-dihydro-6H-[1,4]oxazino [3,2-g]quinazolin-4-yl)amino)ethyl)phenyl)-2-methylpropan-2-ol], the IC50 was 0.001 to 0.01 µM in assay [1], 0.001 to 0.2 µM in assay [2] and 0.031 to 0.13 µM in assay [3].

As to `Cc1nc(N[C@H](C)c2cccc(C(F)(F)CO)c2F)c2cc3c(cc2n1)OC(C)(C)CN3C` [Compound 35, (R)-2,2-Difluoro-2-(2-fluoro-3-(1-((2,6,8,8-tetramethyl-7,8-dihydro-6H-[1,4]oxazino[3,2-g]quinazolin-4-yl)amino)ethyl)phenyl)ethan-1-ol], the IC50 in assay [1] is 0.001 to 0.01 µM; in assay [2] it was 0.001 to 0.2 µM; in assay [3], 0.001 to 0.03 µM.

Consider `Cc1nc(N[C@H](C)c2cccc(C(F)(F)C(C)(C)O)c2F)c2cc3c(cc2n1)OCC(C)(C)N3C` [Compound 37, (R)-1,1-Difluoro-1-(2-fluoro-3-(1-((2,6,7,7-tetramethyl-7,8-dihydro-6H-[1,4]oxazino[3,2-g]quinazolin-4-yl)amino)ethyl)phenyl)-2-methylpropan-2-ol], for which the IC50 fell in the range of 0.001 to 0.01 µM in assay [1], 0.001 to 0.2 µM in assay [2] and 0.001 to 0.03 µM in assay [3].

On to `Cc1nc(N[C@H](C)c2cccc(C(F)(F)C(C)(C)O)c2F)c2cc3c(cc(C)c(=O)n3C)cc2n1` [Compound 38, (R)-4-((1-(3-(1,1-Difluoro-2-hydroxy-2-methylpropyl)-2-fluorophenyl)ethyl)amino)-2,6,8-trimethylpyrido[2,3-g]quinazolin-7(6H)-one], for which the IC50 in assay [1] was in the range of 0.001 to 0.01 µM; in assay [2] it was 0.001 to 0.2 µM; in assay [3], 0.001 to 0.03 µM.

For the origin of these results see US20260209247A1, “Substituted Tricyclic Compounds” (Lupin Limited, priority 2019, published 2026).
